Measured values: ChEMBL document CHEMBL1128198, “New drug developments for opportunistic infections in immunosuppressed patients: Pneumocystis carinii” (J Med Chem, 1995)

What was measured:
[1] = biological target: T1, Dihydrofolate reductase (Pneumocystis carinii, UniProt P16184)
T1 sequence (P16184 whole entry): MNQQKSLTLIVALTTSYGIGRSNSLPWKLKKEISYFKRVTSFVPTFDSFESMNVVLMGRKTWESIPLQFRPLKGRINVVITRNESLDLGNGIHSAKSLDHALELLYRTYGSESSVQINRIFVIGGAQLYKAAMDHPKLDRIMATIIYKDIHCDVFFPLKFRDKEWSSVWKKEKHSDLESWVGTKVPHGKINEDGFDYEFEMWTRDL
Description: Binding affinity was reported with purified recombinant Pneumocystis carinii Dihydrofolate reductase

[2] = biological target: T2, Dihydrofolate reductase (Rattus norvegicus, UniProt Q920D2); assay: Inhibitory activity against dihydrofolate reductase in rat liver.
T2 sequence (Q920D2 whole entry): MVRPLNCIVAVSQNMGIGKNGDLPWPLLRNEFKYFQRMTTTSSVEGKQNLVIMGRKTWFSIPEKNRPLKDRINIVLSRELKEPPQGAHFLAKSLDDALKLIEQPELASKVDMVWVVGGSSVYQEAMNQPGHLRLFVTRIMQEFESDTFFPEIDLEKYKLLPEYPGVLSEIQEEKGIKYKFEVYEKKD

[3] = biological target: T1, Dihydrofolate reductase; remark: listed apart in the source
Description: Inhibitory activity against dihydrofolate reductase in Pneumocystis carinii at 37 centigrade.

[4] = system: Pneumocystis carinii; assay: Minimal effective concentration inhibiting growth of Pneumocystis carinii was reported.; type: functional; details: read-out: MEC
[5] = biological target: T1, Dihydrofolate reductase; remark: listed apart in the source
Description: Inhibitory activity was determined against dihydrofolate reductase in Pneumocystis carinii.

[6] = system: Rattus norvegicus; assay: Evaluated for effectiveness at 10 mg/kg reported as relative to pentamidine in rat; type: functional
[7] = species on record: Rattus norvegicus; assay: Toxicity was reported in rat.; type: organism-based; details: in vivo
[8] = system: Pneumocystis carinii; assay: Pneumocystis carinii cysts per gram of lung tissue was determined in Pneumocystis carinii expressed as perscent of saline treated- control; type: functional; parameters: concentration or dose not given beside the values
[9] = system: Pneumocystis carinii; assay: Toxicity in Pneumocystis carinii Strong activity; type: organism-based; details: in vivo
[10] = species on record: Rattus norvegicus; assay: Toxicity was reported in rat; Toxic; type: organism-based; details: in vivo
[11] = species on record: Rattus norvegicus; assay: Toxicity was reported in rat; Toxic,; type: organism-based; details: in vivo
[12] = Ratio for IC50 of mammalian DHFR to IC50 of Pneumocystis carinii DHFR
[13] = species on record: Rattus norvegicus; assay: toxicity was reported in rat.; type: organism-based; details: in vivo
[14] = biological target: T1, Dihydrofolate reductase; remark: listed apart in the source
[15] = biological target: T2, Dihydrofolate reductase; assay: Inhibitory activity against dihydrofolate reductase in rat.
[16] = Inhibitory activity of Pneumocystis carinii growth culture.

CC1(C)N=C(N)N=C(N)N1c1ccc(Cl)cc1 [CYCLOGUANIL]
Ki [1]: 23.3 nM | IC50 [2]: 110 nM | IC50 [3]: 450 nM

COc1cc(NCCCCC(C)N)c2nccc(C)c2c1 (stereo not drawn)
minimal effective concentration [4]: 0.2 µM

COc1cc(Cn2ccc3c4c(N)nc(N)nc4nc(O)c32)cc(OC)c1OC
IC50 [5]: 3100 nM

N=C(N)c1cc(N)cc(OCCCCOc2cc(C(=N)N)ccc2N)c1
Effectiveness [6]: 1.1 | Toxicity [7]: 0

N=C(N)c1cccc(OCOc2cccc(C(=N)N)c2)c1
Effectiveness [6]: 0.7 | Toxicity [7]: 0

CN(Cc1cnc2cc(N)cc(N)c2n1)c1ccc(C(=O)NC(CCC(=O)O)C(=O)O)c2ccccc12 (stereo not drawn)
IC50 [5]: 190 nM

c1cc2[nH]c(CCCCc3nc4cc(C5=NCCN5)ccc4[nH]3)nc2cc1C1=NCCN1
Lung cyst count, % of saline control [8]: 0.1% | Toxicity [9]: Strong activity

N=C(N)c1ccc(OCOc2ccc(C(=N)N)cc2N)c(N)c1
Effectiveness [6]: 1.1 | Toxicity [7]: 0

c1cc(C2=NCCN2)ccc1OCOc1ccc(C2=NCCN2)cc1
Effectiveness [6]: 2.4 | Toxicity [7]: 0

COc1cc(NC(C)CCCN)c2nccc(C)c2c1Oc1cccc(C(F)(F)F)c1 (stereo not drawn)
minimal effective concentration [4]: 0.2 µM

CCCCCCOc1c(OC)cc(NC(C)CCCN)c2nccc(C)c12 (stereo not drawn) [WR-242511]
minimal effective concentration [4]: 0.2 µM

Nc1cc(N)c2nc(CSc3ccccc3)cnc2c1
IC50 [5]: 9500 nM

COc1cc(OCCCCOc2cc(C(=N)N)ccc2OC)cc(C(=N)N)c1
Effectiveness [6]: 1.2 | Toxicity [7]: 0

N=C(N)c1ccc2[nH]c(CCc3nc4cc(C(=N)N)ccc4[nH]3)nc2c1
Lung cyst count, % of saline control [8]: 1%

N=C(N)c1ccc2[nH]c(CCCc3nc4cc(C(=N)N)ccc4[nH]3)nc2c1
Lung cyst count, % of saline control [8]: 32%

COc1cc(C(=N)N)ccc1OCOc1ccc(C(=N)N)cc1OC
Effectiveness [6]: 1.8 | Toxicity [7]: 0

COc1cc(C2=NCCN2)ccc1OCCCOc1ccc(C2=NCCN2)cc1
Effectiveness [6]: 1.3 | Toxicity [7]: 0

Nc1nc(N)c2cc(Sc3cccc(C(F)(F)F)c3)sc2n1
IC50 [5]: 120000 nM

N=C(N)c1ccc(OCCCOc2ccc(C(=N)N)cc2)cc1 [PROPAMIDINE]
Toxicity [10]: Toxic | Effectiveness [6]: 1.2

c1cc(OCCOc2cccc(C3=NCCN3)c2)cc(C2=NCCN2)c1
Effectiveness [6]: 0.6 | Toxicity [7]: Toxic

N=C(N)c1ccc2[nH]c(/C=C/c3nc4cc(C(=N)N)ccc4[nH]3)nc2c1
Lung cyst count, % of saline control [8]: 3%

COc1ccc(C2=NCCN2)cc1OCCCCOc1cccc(C2=NCCN2)c1
Toxicity [11]: Toxic | Effectiveness [6]: 1.7

CCOc1cc(Cc2cnc(N)nc2N)cc(OCC)c1-n1cccc1 [EPIROPRIM]
Selectivity [12]: 44 | Ki [1]: 3.4 nM | IC50 [3]: 3000 nM

CCN(CC)CCCCCCNc1cc(OC)cc2c(C)ccnc12 [SITAMAQUINE]
minimal effective concentration [4]: 2.3 µM

CN(Cc1cnc2nc(N)nc(N)c2n1)c1ccc(C(=O)NC(CCC(=O)NC(CCC(=O)NC(CCC(=O)NC(CCC(=O)O)C(=O)O)C(=O)O)C(=O)O)C(=O)O)cc1 (stereo not drawn)
IC50 [5]: 35 nM

COc1cc(NC(C)CCCN)c2nccc(C)c2c1 (stereo not drawn)
minimal effective concentration [4]: 0.02 µM

Nc1nc(N)c2c(ncc3c2ccn3Cc2ccc(Cl)cc2Cl)n1
IC50 [5]: 6 nM

Nc1ccc(S(=O)(=O)c2ccc(N)cc2)cc1 [DAPSONE]
IC50 [5]: 1500 nM

c1cc2[nH]c(CCCc3nc4cc(C5=NCCN5)ccc4[nH]3)nc2cc1C1=NCCN1
Lung cyst count, % of saline control [8]: 4%

N=C(N)c1ccc(OCCCCOc2ccc(C(=N)N)cc2)cc1
Effectiveness [6]: 2.2 | Toxicity [13]: 0

N=C(N)c1ccc2[nH]c(CCCCc3nc4cc(C(=N)N)ccc4[nH]3)nc2c1
Lung cyst count, % of saline control [8]: 0.3% | Toxicity [9]: Strong activity

CCc1nc(N)nc(N)c1-c1ccc(Cl)c(NCN(C)C)c1
IC50 [5]: 10600 nM

N=C(N)c1ccc(OCCCCCOc2ccc(C(=N)N)cc2)cc1 [PENTAMIDINE]
Toxicity [11]: Toxic | Effectiveness [6]: 1

COCCOc1c(OC)cc(Cc2cnc(N)nc2N)cc1OC [TETROXOPRIM]
IC50 [3]: > 63000 nM

COc1cc(NC(C)CCCN)c2nc(C)ccc2c1 (stereo not drawn)
minimal effective concentration [4]: 0.03 µM

Cc1cc(NS(=O)(=O)c2ccc(N)cc2)no1 [SULFAMETHOXAZOLE]
IC50 [14]: 100 nM

N=C(N)c1cccc(OCCCCOc2cccc(C(=N)N)c2)c1
Effectiveness [6]: 0.6 | Toxicity [7]: 0

COc1cc(C)c2c(Oc3cccc(C(F)(F)F)c3)c(OC)cc(NC(C)CCCN)c2n1 (stereo not drawn) [TAFENOQUINE]
minimal effective concentration [4]: 0.2 µM

COc1ccc(OC)c(CCc2sc3nc(N)nc(N)c3c2C)c1
IC50 [5]: 1200 nM

CCc1nc(N)nc(N)c1-c1ccc(Cl)c([N+]#N)c1
IC50 [5]: 190 nM

CCN=NNc1cc(-c2c(N)nc(N)nc2CC)ccc1Cl
IC50 [15]: 18900 nM | IC50 [16]: 5500 nM | IC50 [5]: 2800 nM

COc1cc(NC(C)CCCN)c2ncccc2c1 (stereo not drawn) [PRIMAQUINE]
minimal effective concentration [4]: 0.02 µM
